Measurements reported in PubChem BioAssay (NCI).
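The compound was tested at five concentrations on cells cultured in 96-well plates, with a 48-hour exposure period. TGI: concentration producing complete growth inhibition.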

Experiments:
Test in all cases: growth of human tumour cells (NCI), 48 h
[1] = system: HOP-62 NSCLC
[2] = system: DU-145 prostate
[3] = system: HS 578T breast
[4] = system: CCRF-CEM leukemia
[5] = system: SW-620 colon
[6] = system: SNB-19 CNS
[7] = system: SR leukemia
[8] = system: RPMI-8226 leukemia
[9] = system: NCI-H522 lung
[10] = system: OVCAR-3 ovarian
[11] = system: SK-OV-3 ovarian
[12] = system: COLO 205 colon
[13] = system: MALME-3M melanoma
[14] = system: SK-MEL-5 melanoma
[15] = system: SN12C renal
[16] = system: IGROV1 ovarian
[17] = system: BT-549 breast
[18] = system: HL-60(TB) leukemia
[19] = system: TK-10 renal
[20] = system: LOX IMVI melanoma

## COc1ccc(Cc2nc3cc(C(F)(F)F)ccc3n2C[C@@H]2CCCN3CCCCC23)cc1 (stereo not given in full)
[1]
  TGI: 23.2 µM
[2]
  TGI: 26.6 µM
[3]
  TGI: 65.9 µM
[4]
  TGI: > 44.5 µM
[5]
  TGI: > 62.1 µM
[6]
  TGI: 27.4 µM
[7]
  TGI: > 100 µM
[8]
  TGI: 94.8 µM
[9]
  TGI: 21.8 µM
[10]
  TGI: 12.8 µM
[11]
  TGI: 28.4 µM
[12]
  TGI: 18.9 µM
[13]
  TGI: 8.88 µM
[14]
  TGI: 20.3 µM
[15]
  TGI: 22.3 µM
[16]
  TGI: 15.7 µM
[17]
  TGI: 28.5 µM
[18]
  TGI: 19.5 µM
[19]
  TGI: 24.2 µM
[20]
  TGI: 24.9 µM

## COc1cc(CCNC2=CC(=O)c3ncccc3C2=O)ccc1O
[1]
  TGI: 9.5 µM
[2]
  TGI: 12.3 µM
[3]
  TGI: 15.6 µM
[4]
  TGI: > 100 µM
[5]
  TGI: 12.1 µM
[6]
  TGI: 17.7 µM
[7]
  TGI: 38.7 µM
[8]
  TGI: 30.5 µM
[9]
  TGI: 10.3 µM
[10]
  TGI: 5.97 µM
[11]
  TGI: 41.7 µM
[12]
  TGI: 32.6 µM
[13]
  TGI: 1.98 µM
[14]
  TGI: 1.84 µM
[15]
  TGI: 6.71 µM
[16]
  TGI: 10.1 µM
[17]
  TGI: 2.99 µM
[18]
  TGI: > 26.9 µM
[19]
  TGI: 70.8 µM
[20]
  TGI: 6.08 µM

## NS(=O)(=O)c1ccc(NNc2c3ccccc3nc3c(C(=O)Nc4ccc(S(N)(=O)=O)cc4)cccc23)cc1
[1]
  TGI: > 100 µM
[2]
  TGI: > 100 µM
[3]
  TGI: > 100 µM
[4]
  TGI: 80.3 µM
[5]
  TGI: > 100 µM
[6]
  TGI: > 100 µM
[7]
  TGI: 57.9 µM
[8]
  TGI: > 100 µM
[9]
  TGI: 50.8 µM
[10]
  TGI: > 100 µM
[11]
  TGI: > 100 µM
[12]
  TGI: > 100 µM
[13]
  TGI: 99.8 µM
[14]
  TGI: > 100 µM
[15]
  TGI: > 100 µM
[16]
  TGI: > 100 µM
[17]
  TGI: 54.7 µM
[18]
  TGI: 68.9 µM
[19]
  TGI: > 100 µM
[20]
  TGI: 27.5 µM

## NC(C(=O)O)C(O)c1cnc[nH]1 (stereo not given)
[1]
  TGI: > 100 µM
[2]
  TGI: > 100 µM
[3]
  TGI: > 100 µM
[4]
  TGI: > 100 µM
[5]
  TGI: > 100 µM
[6]
  TGI: > 100 µM
[7]
  TGI: > 100 µM
[8]
  TGI: > 100 µM
[9]
  TGI: > 100 µM
[10]
  TGI: > 100 µM
[11]
  TGI: > 100 µM
[12]
  TGI: > 100 µM
[13]
  TGI: > 100 µM
[14]
  TGI: > 100 µM
[15]
  TGI: > 100 µM
[16]
  TGI: > 100 µM
[17]
  TGI: > 100 µM
[18]
  TGI: > 100 µM
[19]
  TGI: > 100 µM
[20]
  TGI: > 100 µM

## COc1ccccc1Nc1nc(N)nc(N)c1N
[1]
  TGI: > 100 µM
[2]
  TGI: > 100 µM
[3]
  TGI: > 100 µM
[4]
  TGI: 50.8 µM
[5]
  TGI: 72 µM
[6]
  TGI: > 100 µM
[7]
  TGI: 45.6 µM
[8]
  TGI: 82.7 µM
[9]
  TGI: 67 µM
[10]
  TGI: > 100 µM
[11]
  TGI: > 100 µM
[12]
  TGI: > 100 µM
[13]
  TGI: > 100 µM
[14]
  TGI: > 100 µM
[15]
  TGI: 32.7 µM
[16]
  TGI: > 100 µM
[17]
  TGI: > 100 µM
[18]
  TGI: 85 µM
[19]
  TGI: > 100 µM
[20]
  TGI: 41.7 µM

## CC(C)=CCN1c2ccccc2[C@@]2(CC=C(C)C)CCN(C)[C@@H]12
[1]
  TGI: 55 µM
[2]
  TGI: > 100 µM
[3]
  TGI: 45.8 µM
[4]
  TGI: > 100 µM
[5]
  TGI: > 100 µM
[6]
  TGI: 52.6 µM
[7]
  TGI: > 100 µM
[8]
  TGI: 51 µM
[9]
  TGI: 39.9 µM
[10]
  TGI: 57.3 µM
[11]
  TGI: 77.1 µM
[12]
  TGI: 26.8 µM
[13]
  TGI: 38.4 µM
[14]
  TGI: 33.2 µM
[15]
  TGI: > 100 µM
[16]
  TGI: > 100 µM
[17]
  TGI: > 100 µM
[18]
  TGI: 38.1 µM
[19]
  TGI: > 100 µM
[20]
  TGI: 34 µM

## COc1cc(Nc2nc(NS(=O)(=O)c3cc(C)c(Cl)cc3S)n[nH]2)cc(OC)c1OC
[1]
  TGI: > 100 µM
[2]
  TGI: > 100 µM
[3]
  TGI: > 100 µM
[4]
  TGI: > 100 µM
[5]
  TGI: > 100 µM
[6]
  TGI: > 100 µM
[7]
  TGI: > 100 µM
[8]
  TGI: > 100 µM
[9]
  TGI: > 100 µM
[10]
  TGI: > 100 µM
[11]
  TGI: > 100 µM
[12]
  TGI: > 100 µM
[13]
  TGI: > 100 µM
[14]
  TGI: > 100 µM
[15]
  TGI: > 100 µM
[16]
  TGI: > 100 µM
[17]
  TGI: > 100 µM
[18]
  TGI: > 100 µM
[19]
  TGI: > 100 µM
[20]
  TGI: > 100 µM

## COC1=C(OC)C(=O)c2cc(C)c(=O)c(C)cc2C1=O
[1]
  TGI: 36.6 µM
[2]
  TGI: 32.6 µM
[3]
  TGI: 63.8 µM
[4]
  TGI: 7.06 µM
[5]
  TGI: 20.7 µM
[6]
  TGI: 37.6 µM
[7]
  TGI: > 22.6 µM
[8]
  TGI: 40.7 µM
[9]
  TGI: 32.2 µM
[10]
  TGI: 24 µM
[11]
  TGI: 41.8 µM
[12]
  TGI: 34.7 µM
[13]
  TGI: 30.8 µM
[14]
  TGI: 29.3 µM
[15]
  TGI: 7.08 µM
[16]
  TGI: 33.2 µM
[17]
  TGI: 28.5 µM
[18]
  TGI: 8.9 µM
[19]
  TGI: 34 µM
[20]
  TGI: > 39 µM

## Cn1c2ccccc2n2c3ccccc3c3nnc(N)c-3c12
[1]
  TGI: > 86.5 µM
[2]
  TGI: > 100 µM
[3]
  TGI: 10.8 µM
[4]
  TGI: > 100 µM
[5]
  TGI: > 100 µM
[6]
  TGI: 25.5 µM
[7]
  TGI: > 100 µM
[8]
  TGI: > 100 µM
[9]
  TGI: 26.2 µM
[10]
  TGI: > 100 µM
[11]
  TGI: > 100 µM
[12]
  TGI: > 100 µM
[13]
  TGI: 32.3 µM
[14]
  TGI: > 100 µM
[15]
  TGI: 10 µM
[16]
  TGI: > 100 µM
[17]
  TGI: 13.8 µM
[18]
  TGI: > 100 µM
[19]
  TGI: > 100 µM
[20]
  TGI: > 100 µM
